Data taken from patent US9725490B2, “ERAP1-derived peptide and use thereof” (TOKUSHIMA UNIVERSITY, priority 2011, dated 2017).

Tests used:
Format in all cases: cell-based, human
MCF-7 cells [1] = assay: Cell cycle FACS analysis, MCF-7; details: 10 μM ERAP1-peptide and/or 10 nM tamoxifen, 10 nM E2 24 hours
Description: FIG. 6-2 is a diagram illustrating that ERAP1-peptide treatment suppresses ERα-dependent cell proliferation of breast cancer cell lines. […] MCF-7 cells were treated with 10 μM ERAP1-peptide or 10 μM tamoxifen. Then, immediately, the cells were stimulated with 10 nM E2 for 24 hours. After the immobilization, the cells were stained with propidium iodide, and analyzed by flow cytometry.
FIG. 19 is a diagram illustrating the results of FACS analysis showing the effects of concomitant use of the ERAP1-peptide and tamoxifen on the cell cycle.
The cells were fixed with cold 70% ethanol, and stained with 20 μg/ml propidium iodide (Sigma) and 1 mg/ml ribonuclease A (Sigma), and analyzed with FACSCalibur (B D, Franklin Lakes, N.J., USA). The cell cycle was evaluated using CellQuest software (BD).
MCF-7 cells were treated with 10 μM ERAP1-peptide and/or 10 nM tamoxifen. Then, immediately, the cells were stimulated with 10 nM E2 for 24 hours. After the immobilization, the cells were stained with propidium iodide, and analyzed by flow cytometry.

ERAP1 expression = assay: ERAP1 expression, quantitative RT-PCR and Western, MCF-7; details: tamoxifen, 10 nM E2 24 hours
[2] = test system: Akt, MAPK and ERα phosphorylation; assay: Phosphorylation of Akt, MAPK and ERα in tamoxifen-resistant MCF-7 cells; details: Tam-R MCF-7, tamoxifen alone or tamoxifen and E2
Description: FIG. 14 is a diagram illustrating the suppression effect of the ERAP1-peptide on tamoxifen-resistant MCF-7 cells. […] The tamoxifen-resistant MCF-7 cells were treated with the ERAP1-peptide in each concentration (0, 5 and 10 μM). Then, immediately, the cells were stimulated with 10 nM E2 for 24 hours.
MCF-7 cells and tamoxifen-resistant MCF-7 cells were seeded in 1×10^5/well in DMEM/F12 culture medium containing phenol red on a 24-well plate and stood in a CO2 incubator for 24 hours. Then, the culture medium was exchanged with DMEM/F12 culture medium containing 10% FBS, 1% penicillin/streptomycin and 1 μM tamoxifen, and not containing phenol red, and the cells were further pre-cultured for 24 hours. The supernatant was removed, and then 180 μl of […] ERAP1-peptide was added (final concentration: 10 μM), and subsequently 20 μl of 100 nM E2 was added (final concentration: 10 nM), and the mixture was reacted for 24 hours. The reaction solution was removed, and then 100 μl of SDS-sample buffer was added and the cells were lysed. The cells were subjected to boiling treatment at 95° C. for 5 minutes, and subjected to polyacrylic amide electrophoresis. Phosphorylations of Akt and MAPK were detected with anti-phosphorylation Akt (Ser473) (587F11) and anti-phosphorylation p44/42 MAP Kinase (Thr202/Tyr204) antibodies, and phosphorylation of ERα was detected with anti-phosphorylation ERα (Ser104/106), anti-phosphorylation ERα (Ser118), anti-phosphorylation ERα (Ser167), anti-phosphorylation ERα (Ser305) and anti-phosphorylation ERα (Tyr537) antibodies.

MCF-7 cells [3] = assay: MTT assay of tamoxifen with ERAP1 knockdown; details: 10 μM tamoxifen, 96 hours, 1 μM E2
Description: (§1) FIG. 17 is a diagram illustrating the influence of ERAP1 knockdown on the suppression effect on proliferation of breast cancer cells by tamoxifen.
The inhibition effect of tamoxifen when ERAP1 was knocked down by siRNA method was evaluated with MTT assay. The sequences of si-ERAP1, and si-control (si-EGFP) and the method for the experiment were in accordance with the report of Kim et, al. (Cancer Science, 2009, 100; 1468-78) MCF-7 cells were seeded in […] on a 48-well plate, and stimulated with 1 μM E2, and after 24 hours, treated with si-ERAP1 or si-control. After 24 hours, the cells were treated with 10 μM tamoxifen and the number of living cells was evaluated with MTT assay after 96 hours.

ERE reporter activity = assay: ERE-luciferase assay of tamoxifen with ERAP1 knockdown; details: 10 μM tamoxifen, 96 hours, 1 μM E2
Description: as §1
In addition, the inhibition effect of tamoxifen when ERAP1 was knocked down by siRNA method was evaluated with ERE-luciferase assay. MCF-7 cells were seeded in 2×10^4/well on a 96-well plate, and were temporarily transfected with ERE-luciferase reporter. Then, the cells were stimulated with 1 μM E2, and after 24 hours, treated with si-ERAP1 or si-control. After 24 hours, the cells were treated with 10 μM tamoxifen and after 96 hours, ERE luciferase activity was measured.

SMILES: CC/C(=C(\c1ccccc1)c1ccc(OCCN(C)C)cc1)c1ccccc1 [tamoxifen, reference compound]
- cell cycle (MCF-7 cells [1]): increase of cells having stopped in the G1 phase
- expression of ERAP1, mRNA level and protein level (ERAP1 expression): suppressed depending on the concentration of TAM
- phosphorylations of Akt and MAPK [2]: accelerated phosphorylations of Akt and MAPK
- cell proliferation, siERAP1 versus si-control (MCF-7 cells [3]): the cell proliferation was suppressed more
- ERE reporter activity, siERAP1 versus si-control (ERE reporter activity): the reporter activity was suppressed more
